# Columns and labels:
# BALB/c mice [1] = assay: Proliferation of HEL-specific T cells of popliteal lymph nodes after immunization (thymidine incorporation); type: in vivo, mouse
# Protocol: LPC stimulates the T response specific for a co-injected soluble antigen. LPC dissolved in PBS (250 or 500 nmol in 50 μl) is mixed with hen egg lysozyme (HEL, 50 μg) and this mixture is injected into the plantar foot pad of BALB/c mice. After 7 days, the popliteal lymph nodes are removed and their cells are restimulated in triplicate in vitro, in a culture medium containing 30 μM of HEL antigen, or in the absence of HEL. After 3 days, the T lymphocyte proliferation is measured by incorporation of triturated thymidine for 16 h.
# INTRALIPID® blocks the inflammation and the immune response induced by LPC, in vivo. In this example, 3 batches of BALB/c mice are immunized against the hen egg lysozyme (HEL) antigen by injection of 50 μl of solution into the plantar foot pad. The “HEL” control batch receives 50 μg of HEL, the “HEL+Intralipid” batch receives a mixture of INTRALIPID® (45 μl) and of 50 μg of HEL (5 μl of a solution at 10 mg/ml). The “HEL+LPC” batch receives 50 μg of HEL with 350 nmol of LPC dissolved in PBS. The “HEL+LPC+Intralipid” batch receives 50 μg of HEL mixed with 350 nmol of LPC dissolved in 45 μl of INTRALIPID®. After 24 hours, the thickness of the foot pads is measured using a micrometer, and compared with the measurement taken before injection. The difference in thickness is proportional to the intensity of the inflammation.
# Seven days after the injection, the popliteal lymph nodes are removed and their cells are restimulated in vitro in triplicate, in a culture medium containing 10 μM of HEL or in the absence of HEL. After 3 days, the proliferation of HEL-specific T lymphocytes is measured by incorporation of triturated thymidine for 16 h.
# PAF receptor = assay: CD86 expression in presence of PAF or of the PAF antagonist BN52021; type: cell-based, human; details: differentiation induced by oxidized LDLs; BN52021 added on 5th day
# Protocol: The phenotype of the “control” and “LPC” cells is analyzed by flow cytometry on a FACSCalibur (Becton Dickinson, Francklin Lakes, N.J., USA) using FITC (fluorosceine isothiocyanate)-conjugated anti-CD14, anti-HLA-DR and anti-CD80 and PE (phycoerythrin)-conjugated anti-CD1a, anti-CD83, anti-CD86 and anti-CD40 (Beckman Coulter). According to the state of the art, monocytes preferentially have a CD14+ CD1a− phenotype, immature dendritic cells preferentially have a CD14− CD1a+CD86− phenotype, and mature dendritic cells preferentially have a CD14− CD1a intermediate—CD86+ phenotype.
# Thus, a solution of PAF (Sigma, 5 μM) was added to the culture medium on the 5th day of monocyte differentiation. The expression of CD86 by the “control” cells and by the “LPC” cells, obtained in the presence or in the absence of PAF, was analyzed according to the protocol described in example 2, and the results are given in table 9.
# Thus, a solution of the PAF antagonist BN52021 (Biomol, Plymouth Meeting, USA, 100 μM) was added to the culture medium on the 5th day of monocyte differentiation. The expression of CD86 by the “control” and “LPC” cells, obtained in the presence or in the absence of BN52021, was analyzed according to the protocol described in example 2, and the results are given in table 10.
# BALB/c mice [2] = assay: Migration of skin dendritic cells to draining lymph nodes (FITC uptake); type: in vivo, mouse; details: auricular and maxillary lymph nodes after 24 h; LPC 0.1 M on ear skin 10 minutes before FITC 1.5%
# Protocol: This fluorescent label is taken up by the dendritic cells of the skin. After 24 h, the auricular and maxillary lymph nodes are removed and the cells are placed in suspension. The cell suspension is enriched in dendritic cells by metrizamide (Sigma) gradient centrifugation. The cells are labeled with an antibody (Pharmingen) which recognizes Major Histocompatibility Complex (MHC) […] molecules and analysis by flow cytometry makes it possible to quantify the percentage of large cells (dendritic cells) expressing the MHC class II molecules and containing FITC. These cells are presenting cells which have taken up the FITC in the periphery and have migrated to the lymph nodes.
# PPARδ = assay: PPAR binding activity by gel shift on nuclear proteins of treated monocytes; type: cell-based, human; details: Table 7; ciglitizone 50 μM 15 minutes before LPC 40 μM for 2 hours; control = 100%
# Protocol: (§1) Next, the inventors investigated the transcription factors involved in the maturation process induced by LPC. In order to determine whether PPARs are involved in the LPC-induced maturation, the ability of the two transcription factors PPARγ and PPARδ to bind was analyzed using the gel shift technique. 3 isotypes of PPAR nuclear receptors (peroxisome proliferator-activated receptor) exist: α, γ and δ. PPARγs are the targets for molecules of the thiazolidinedione class, such as ciglitizone, used in the treatment of type II diabetes. PPARδs have a broader expression and can be repressors of PPARγs. The monocytes undergoing differentiation were incubated for two hours with a solution of LPC (40 μM) (“LPC” cells). “Control” cells are also obtained in the absence of LPC in the culture medium. After having harvested the cells, the nuclear proteins were extracted with the Nuclear extract Kit (Sigma). The nuclear proteins were then brought into contact with a ratioactively labeled probe containing a response element recognized by PPARs. […] The PPAR binding activity was determined by measuring the intensity of these bands. These activities are expressed as a percentage with respect to the “control” cells. […]
# (§2) The activity of the PPARγ and PPARδ transcription factors was measured in these cells by the gel shift technique, as described above.
# (§3) INTRALIPID® regulates PPARs in vitro. […] The cells were harvested after 1 h, 2 h or 8 h of incubation with INTRALIPID®, the nuclear proteins were extracted and the activity of PPARγ and PPARδ was determined as described in example 6.
# (§4) Secondly, a solution of INTRALIPID® (50 μg/ml of phospholipids) was added to the culture medium on the 5th day of monocyte differentiation, 15 minutes before the addition of a solution of LPC (40 μM) (“LPC+Intralipid” cells). […] The cells were harvested after 2 h of incubation, the nuclear proteins were extracted and the activity of PPARγ and PPARδ was determined as described in example 6.
# PPARγ = biological target: T1, PPARγ (Homo sapiens, UniProt P37231); assay: as above; type: cell-based; details: Table 7; ciglitizone 50 μM 15 minutes before LPC 40 μM for 2 hours; control = 100%
# T1 construct: After having harvested the cells, the nuclear proteins were extracted with the Nuclear extract Kit (Sigma); endogenous in cells; host or cells: monocytes undergoing differentiation into dendritic cells (nuclear extract)
# T1 sequence (P37231 1-505): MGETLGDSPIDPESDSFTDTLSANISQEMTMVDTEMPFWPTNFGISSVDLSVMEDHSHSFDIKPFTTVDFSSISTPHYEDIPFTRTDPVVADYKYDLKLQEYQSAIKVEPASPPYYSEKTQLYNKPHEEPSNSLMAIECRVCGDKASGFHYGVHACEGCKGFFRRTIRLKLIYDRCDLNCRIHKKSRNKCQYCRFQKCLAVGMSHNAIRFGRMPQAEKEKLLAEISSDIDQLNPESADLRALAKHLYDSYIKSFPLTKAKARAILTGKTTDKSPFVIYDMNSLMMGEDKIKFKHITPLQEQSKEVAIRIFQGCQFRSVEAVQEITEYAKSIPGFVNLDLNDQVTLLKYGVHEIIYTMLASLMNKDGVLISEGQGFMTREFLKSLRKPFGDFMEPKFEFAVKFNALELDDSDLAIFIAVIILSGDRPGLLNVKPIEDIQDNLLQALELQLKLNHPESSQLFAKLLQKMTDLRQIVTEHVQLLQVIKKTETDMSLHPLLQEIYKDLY
# Protocol: as §1, §2, §3, §4
# [3] = Table 18, HEL 50 μg, LPC 350 nmol, Intralipid 45 μl, seven days after injection
molecule,measurement,setting,value
"HEL: hen egg lysozyme, soluble antigen; antigen-only group",Restimulation with HEL (30 μM),"BALB/c mice [1]; Table 13, immunization with HEL 50 μg alone",5370 ± 1983 CPM
same,Proliferation in the absence of HEL,"BALB/c mice [1]; Table 13, immunization with HEL 50 μg alone, day 7 lymph node cells",1315 ± 275 CPM
same,Proliferation in the absence of HEL,BALB/c mice [1]; [3],370 ± 212 cpm
same,Restimulation with HEL (10 μM),BALB/c mice [1]; [3],738 ± 408 cpm
"CC1C(=O)OC2C(O)C34C5CC(C(C)(C)C)C36C(OC(=O)C6O)OC4(C(=O)O5)C12O (centres unmarked) [BN52021, reference compound]",Inhibition of the action of the oxidized LDLs,PAF receptor,100%
O=C1OC2(c3ccc(O)cc3Oc3cc(O)ccc32)c2ccc(N=C=S)cc21 [FITC],FITC+ dendritic cells,BALB/c mice [2],7.1 ± 1.7%
"CC1(COc2ccc(CC3SC(=O)NC3=O)cc2)CCCCC1 (centres unmarked) [Ciglitizone, reference compound]",PPARδ binding activity,PPARδ,106%
same,PPARγ binding activity,PPARγ,237%
